Measurements: US20260132132A1, “3A,4,5,6-TETRAHYDRO-1 H-PYRAZOLO[3,4-C]PYRIDIN-7(7AH)-ONE DERIVATIVES AS FACTOR XIIA INHIBITORS” (KALVISTA PHARMACEUTICALS LIMITED, priority 2022, published 2026)

Legend:
FXa = FXa (Homo sapiens, UniProt P00742); assay: Related protease inhibition: FXa, fluorogenic substrate; format: biochemical; settings: fluorogenic substrate at Km, 25° C.; H1-H3 = % activity at 40 μM
Procedure: Human serine protease enzyme Plasma Kallikrein, KLK1, FXa, Plasmin, Thrombin and Trypsin were assayed for enzymatic activity using an appropriate fluorogenic substrate at Km concentration, FXIa at fixed substrate concentration of 100 μM and various concentrations of the test compound.

[1] = biological target: T1, Human Factor XIIa (hFXIIa) (Homo sapiens, UniProt P00748); assay: Determination of Human Factor XIIa (hFXIIa) inhibition, fluorogenic substrate IC50 assay; format: biochemical; settings: fluorogenic substrate H-DPro-Phe-Arg-AFC at Km, 25° C., read-out: Human FXIIa IC50
T1 construct: purchased Enzyme Research Laboratories
T1 sequence (P00748 373-615 limits assumed): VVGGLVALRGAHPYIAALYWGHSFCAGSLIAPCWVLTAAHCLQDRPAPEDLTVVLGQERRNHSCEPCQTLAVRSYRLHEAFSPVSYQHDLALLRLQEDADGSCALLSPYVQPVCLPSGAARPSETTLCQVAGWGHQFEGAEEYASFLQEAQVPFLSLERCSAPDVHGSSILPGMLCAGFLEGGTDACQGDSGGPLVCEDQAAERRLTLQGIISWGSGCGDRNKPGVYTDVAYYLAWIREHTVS
T1 sequence (P00748 20-372 partner limits assumed): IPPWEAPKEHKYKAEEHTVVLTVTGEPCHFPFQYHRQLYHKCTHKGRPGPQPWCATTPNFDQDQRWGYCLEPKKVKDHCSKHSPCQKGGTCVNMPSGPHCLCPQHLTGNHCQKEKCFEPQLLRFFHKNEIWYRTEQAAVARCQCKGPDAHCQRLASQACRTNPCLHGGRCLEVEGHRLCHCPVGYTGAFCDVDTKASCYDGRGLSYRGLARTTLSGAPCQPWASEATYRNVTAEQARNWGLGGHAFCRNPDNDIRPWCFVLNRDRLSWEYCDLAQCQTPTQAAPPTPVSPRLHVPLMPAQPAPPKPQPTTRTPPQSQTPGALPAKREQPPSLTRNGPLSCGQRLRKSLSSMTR
Procedure: Determination of Human Factor XIIa (hFXIIa) inhibition
The Km for the cleavage of the substrate by hFXIIa was determined by standard transformation of the Michaelis-Menten equation, with subsequent inhibition assays performed at substrate Km concentration.

Sequence of FXa (P00742 235-488 limits assumed): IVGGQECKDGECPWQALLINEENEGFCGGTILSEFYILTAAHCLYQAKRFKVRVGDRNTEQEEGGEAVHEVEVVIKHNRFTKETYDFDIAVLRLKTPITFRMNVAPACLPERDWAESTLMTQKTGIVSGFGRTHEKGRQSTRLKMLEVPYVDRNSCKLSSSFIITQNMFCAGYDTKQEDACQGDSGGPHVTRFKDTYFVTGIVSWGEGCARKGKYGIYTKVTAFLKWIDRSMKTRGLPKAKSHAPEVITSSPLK
Sequence of FXa (P00742 41-179 partner limits assumed): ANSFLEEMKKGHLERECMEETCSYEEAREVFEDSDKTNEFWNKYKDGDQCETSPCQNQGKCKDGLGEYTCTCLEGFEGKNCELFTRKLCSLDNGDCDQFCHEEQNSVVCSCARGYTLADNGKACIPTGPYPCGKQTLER

An IC50 (FXa) of over 100000 nM and an IC50 [1] of 300 to 1000 nM were found for `O=C(NCc1ccccc1)c1nn(-c2cccc(Cl)c2)c2c1CCN(c1ccc3c(c1)CN(C1CC1)CC3)C2=O` [Example 1029, N-benzyl-1-(3-chlorophenyl)-6-(2-cyclopropyl-1,2,3,4-tetrahydroisoquinolin-7-yl)-7-oxo-4,5,6,7-tetrahydro-1H-pyrazolo[3,4-c]pyridine-3-carboxamide] in this work.
An IC50 (FXa) of 3000 to 10000 nM and an IC50 [1] of 100 to 300 nM were found for `CN1CCCc2ccc(N3CCc4c(C(=O)NCc5ccccc5)nn(-c5cccc(Cl)c5)c4C3=O)cc2C1` [Example 1030, N-benzyl-1-(3-chlorophenyl)-6-(2-methyl-2,3,4,5-tetrahydro-1H-benzo[c]azepin-8-yl)-7-oxo-4,5,6,7-tetrahydro-1H-pyrazolo[3,4-c]pyridine-3-carboxamide] in this work.
An IC50 (FXa) of 10000 to 40000 nM and an IC50 [1] of 100 to 300 nM were found for `CCN1CCc2ccc(N3CCc4c(C(=O)NCC5CC5)nn(-c5cccc(Cl)c5)c4C3=O)cc2C1` [Example 1031, 1-(3-chlorophenyl)-N-(cyclopropylmethyl)-6-(2-ethyl-1,2,3,4-tetrahydroisoquinolin-7-yl)-7-oxo-4,5,6,7-tetrahydro-1H-pyrazolo[3,4-c]pyridine-3-carboxamide] in this work.
An IC50 (FXa) of over 40000 nM and an IC50 [1] of 300 to 1000 nM were found for `O=C(NCC1CC1)c1nn(-c2cccc(Cl)c2)c2c1CCN(c1ccc3c(c1)CN(C1COC1)CC3)C2=O` [Example 1032, 1-(3-chlorophenyl)-N-(cyclopropylmethyl)-6-(2-(oxetan-3-yl)-1,2,3,4-tetrahydroisoquinolin-7-yl)-7-oxo-4,5,6,7-tetrahydro-1H-pyrazolo[3,4-c]pyridine-3-carboxamide] in this work.
An IC50 (FXa) of over 40000 nM and an IC50 [1] of 300 to 1000 nM were found for `O=C(NCC1CC1)c1nn(-c2cccc(Cl)c2)c2c1CCN(c1ccc3c(c1)CN(CC1CC1)CC3)C2=O` [Example 1036, 1-(3-chlorophenyl)-N-(cyclopropylmethyl)-6-(2-(cyclopropylmethyl)-1,2,3,4-tetrahydroisoquinolin-7-yl)-7-oxo-4,5,6,7-tetrahydro-1H-pyrazolo[3,4-c]pyridine-3-carboxamide] in this work.
An IC50 (FXa) of 3000 to 10000 nM and an IC50 [1] of 300 to 1000 nM were found for `CN1CCc2ccc(N3CCc4c(C(=O)NC5CCOCC5)nn(-c5cccc(Cl)c5)c4C3=O)cc2C1` [Example 1043, 1-(3-chlorophenyl)-6-(2-methyl-1,2,3,4-tetrahydroisoquinolin-7-yl)-7-oxo-N-(tetrahydro-2H-pyran-4-yl)-4,5,6,7-tetrahydro-1H-pyrazolo[3,4-c]pyridine-3-carboxamide] in this work.
An IC50 (FXa) of 3000 to 10000 nM and an IC50 [1] of 10 to 100 nM were found for `CCN1CCc2ccc(N3CCc4c(C(=O)N[C@H](CO)c5ccccc5)nn(-c5cccc(Cl)c5)c4C3=O)cc2C1` [Example 1051, (S)-1-(3-chlorophenyl)-6-(2-ethyl-1,2,3,4-tetrahydroisoquinolin-7-yl)-N-(2-hydroxy-1-phenylethyl)-7-oxo-4,5,6,7-tetrahydro-1H-pyrazolo[3,4-c]pyridine-3-carboxamide] in this work.
An IC50 (FXa) of 10000 to 40000 nM and an IC50 [1] of 1000 to 3000 nM were found for `O=C(NCC1CC1)c1nn(-c2cccc(Cl)c2)c2c1CCN(c1ccc3c(c1)CNCC3)C2=O` [Example 1074, 1-(3-chlorophenyl)-N-(cyclopropylmethyl)-7-oxo-6-(1,2,3,4-tetrahydroisoquinolin-7-yl)-4,5,6,7-tetrahydro-1H-pyrazolo[3,4-c]pyridine-3-carboxamide] in this work.
An IC50 (FXa) of 10000 to 40000 nM and an IC50 [1] of 100 to 300 nM were found for `O=C(NC1CCOCC1)c1nn(-c2cccc(Cl)c2)c2c1CCN(c1ccc3c(c1)CN(CCO)CC3)C2=O` [Example 1076, 1-(3-chlorophenyl)-6-(2-(2-hydroxyethyl)-1,2,3,4-tetrahydroisoquinolin-7-yl)-7-oxo-N-(tetrahydro-2H-pyran-4-yl)-4,5,6,7-tetrahydro-1H-pyrazolo[3,4-c]pyridine-3-carboxamide] in this work.
An IC50 (FXa) of 3000 to 10000 nM and an IC50 [1] of 10 to 100 nM were found for `Cc1cc(CNC(=O)c2nn(-c3cccc(Cl)c3)c3c2CCN(c2ccc4c(c2)CN(CCO)CC4)C3=O)[nH]n1` [Example 1077, 1-(3-chlorophenyl)-6-(2-(2-hydroxyethyl)-1,2,3,4-tetrahydroisoquinolin-7-yl)-N-((3-methyl-1H-pyrazol-5-yl)methyl)-7-oxo-4,5,6,7-tetrahydro-1H-pyrazolo[3,4-c]pyridine-3-carboxamide] in this work.
An IC50 (FXa) of 3000 to 10000 nM and an IC50 [1] of 10 to 100 nM were found for `O=C(NCc1cccnc1)c1nn(-c2cccc(Cl)c2)c2c1CCN(c1ccc3c(c1)CN(CCO)CC3)C2=O` [Example 1078, 1-(3-chlorophenyl)-6-(2-(2-hydroxyethyl)-1,2,3,4-tetrahydroisoquinolin-7-yl)-7-oxo-N-(pyridin-3-ylmethyl)-4,5,6,7-tetrahydro-1H-pyrazolo[3,4-c]pyridine-3-carboxamide] in this work.
An IC50 (FXa) of 10000 to 40000 nM and an IC50 [1] of 10 to 100 nM were found for `CCN1CCc2cc(F)c(N3CCc4c(C(=O)NCC5CC5)nn(-c5cccc(Cl)c5)c4C3=O)cc2C1` [Example 1079, 1-(3-chlorophenyl)-N-(cyclopropylmethyl)-6-(2-ethyl-6-fluoro-1,2,3,4-tetrahydroisoquinolin-7-yl)-7-oxo-4,5,6,7-tetrahydro-1H-pyrazolo[3,4-c]pyridine-3-carboxamide] in this work.
An IC50 (FXa) of over 40000 nM and an IC50 [1] of 100 to 300 nM were found for `CCN1CCc2ccc(N3CCc4c(C(=O)NC5CCOCC5)nn(-c5cccc(Cl)c5)c4C3=O)cc2C1` [Example 1085, 1-(3-chlorophenyl)-6-(2-ethyl-1,2,3,4-tetrahydroisoquinolin-7-yl)-7-oxo-N-(tetrahydro-2H-pyran-4-yl)-4,5,6,7-tetrahydro-1H-pyrazolo[3,4-c]pyridine-3-carboxamide] in this work.
An IC50 (FXa) of 10000 to 40000 nM and an IC50 [1] of 10 to 100 nM were found for `O=C(NCc1ccn[nH]1)c1nn(-c2cccc(Cl)c2)c2c1CCN(c1ccc3c(c1)CN(CCO)CC3)C2=O` [Example 1089, N-((1H-pyrazol-5-yl)methyl)-1-(3-chlorophenyl)-6-(2-(2-hydroxyethyl)-1,2,3,4-tetrahydroisoquinolin-7-yl)-7-oxo-4,5,6,7-tetrahydro-1H-pyrazolo[3,4-c]pyridine-3-carboxamide] in this work.
An IC50 (FXa) of over 40000 nM and an IC50 [1] of 100 to 300 nM were found for `CCN1CCc2ccc(N3CCc4c(C(=O)NC5COCC5(C)C)nn(-c5cccc(Cl)c5)c4C3=O)cc2C1` (stereo not shown) [Example 1092, 1-(3-chlorophenyl)-N-(4,4-dimethyltetrahydrofuran-3-yl)-6-(2-ethyl-1,2,3,4-tetrahydroisoquinolin-7-yl)-7-oxo-4,5,6,7-tetrahydro-1H-pyrazolo[3,4-c]pyridine-3-carboxamide] in this work.
An IC50 (FXa) of 3000 to 10000 nM and an IC50 [1] of 10 to 100 nM were found for `CCN1Cc2cc(N3CCc4c(C(=O)NCC5CC5)nn(-c5cccc(Cl)c5)c4C3=O)ccc2C2(CC2)C1` [Example 1099, 1-(3-chlorophenyl)-N-(cyclopropylmethyl)-6-(2′-ethyl-2′,3′-dihydro-1′H-spiro[cyclopropane-1,4′-isoquinolin]-7′-yl)-7-oxo-4,5,6,7-tetrahydro-1H-pyrazolo[3,4-c]pyridine-3-carboxamide] in this work.
An IC50 (FXa) of over 40000 nM and an IC50 [1] of 10 to 100 nM were found for `O=C(NCc1ccco1)c1nn(-c2cccc(Cl)c2)c2c1CCN(c1ccc3c(c1)CN(CCO)CC3)C2=O` [Example 1109, 1-(3-chlorophenyl)-N-(furan-2-ylmethyl)-6-(2-(2-hydroxyethyl)-1,2,3,4-tetrahydroisoquinolin-7-yl)-7-oxo-4,5,6,7-tetrahydro-1H-pyrazolo[3,4-c]pyridine-3-carboxamide] in this work.
